These results are taken from patent publication US6043386A, “Non-calcemic, antiproliferative, transcriptionally active 24-fluorinated hybrid analogs of 1α,-25-dihydroxy vitamin D3” (John Hopkins University, priority 1999, dated 2000).

In one data set the test system is murine keratinocytes. The experiment in a line: in vitro antiproliferative activity in murine keratinocytes (FIG. 1). The data set is classed as cell-based. Conditions: for antiproliferative activities: 1α,3β vs. 1β,3α diastereomers; for antiproliferative activity relative to 1,25D3: even at physiologically relevant 7 nM concentrations. As for the experimental part: Each of these new hybrid analogs (Structures 3 and 4 of Scheme I) is evaluated initially for in vitro antiproliferative activity in murine keratinocytes, using the protocol described in Posner et al., J. Med. Chem. 1992, 35, pp. 3280-3287. The procedure utilized is described as follows:
(§1) Murine B16 malignant melanoma cells are grown and propagated in RPMI medium supplemented with 10% fetal bovine serum, L-glutamine, penicillin, and streptomycin and incubated at 37° C. in 5% CO2. For proliferation studies, cells are washed with PBS, trypsinized, and suspended in 8 ml of supplemented RPMI medium. The cell density is then determined using a hemacytometer and cells are resuspended in RPMI at 10,000 cells/cm^3. One ml of cell suspension (10,000 cells) is added to each well of a Falcon 24 Well Flat Bottom Tissue Culture Plate (Becton-Dickinson, Lincoln Park, N.J.). Plates are incubated for 24 hours to allow for cell attachment. The medium is then removed and replaced with fresh RPMI medium containing either 0.4% solvent (isopropanol) or vitamin D analog at concentrations ranging from 1-1000 nM in triplicate. When control wells near confluence, cells are washed with PBS, trypsinized, and suspended in 10 ml of Isoton II Coulter Balanced EIectrolyte Solution in FISHERbrand Dilu-Vial cuvettes. Cell number is then determined for each well as an average of two readings on a ZM Coulter Counter. Results are expressed as the average cell number for each vitamin D analog treatment group divided by the intital cell number (N/N0). The average standard deviation of the N/N0 cell number measurements was 0.21 in FIG. 1 and 2.1 in FIG. 2.

Another data set concerns Male F344 rats. The experiment in a line: Determination of urinary calcium levels / hypercalcemic effects in vivo (FIG. 3). To be noted: 1 microgram per kg per os, seven consecutive days. Set-up: species or system rat. As for the experimental part: Because of their high antiproliferative and transcriptional activities in vitro, fluorinated hybrid analogs, Structures 3b and 4b, are evaluated for hypercalcemic effects in vivo. The procedure utilized is described as follows:
Determination of urinary calcium levels.
(§2) Male F344 rats (150 g) are housed individually in glass metabolism cages and received food and water ad libitum. After several days acclimation, rats receive 1 microgram per kg body weight of test compound per os for seven consecutive days in 150 microliters of propylene glycol/0.05M Na2 HPO4 (80:20). Urine samples, which are collected on ice, were centrifuged at 650×g for 10 min, adjusted to pH 6.0 as necessary, and assayed for calcium content spectrophotometrically at 575 nm using reagents and standards from Sigma Calcium Kit #587.

A short description of data set [1]: body weight gain in rats treated daily for one week. The data set is classed as in vivo, rat. To be noted: 1 microgram per kg per os, seven consecutive days. Here is the method: as §2
The subject of another data set is vitamin D receptor. The experiment in a line: in vitro vitamin D receptor-mediated transcriptional activity in ROS 17/2.8 cells (growth hormone reporter). The data set is classed as cell-based. To be noted: 48 h, rat osteosarcoma ROS 17/2.8 cells, vitamin D responsive element of human osteocalcin gene, 2 days, read-out: ED50 (transcriptional potency). Here is the method:
The procedure utilized is described as follows:
Transfections and transcriptional activity of the analogs.
Rat osteosarcoma ROS 17/2.8 cells are maintained in 50% Dulbecco's modified Eagle medium (DMEM) and 50% F12 nutrient mixture supplemented with 10% fetal bovine serum. Forty eight hours before transfections, the cells are plated in 35-mm dishes at a density of 10^5 /dish in DMEM and 10% fetal bovine serum. ROS 17/2.8 cells are transfected with 2 μg of plasmid containing the vitamin D responsive element from the human osteocalcin gene ([…]) attached to the thymidine kinase promoter/growth hormone fusion gene. […] Medium samples for measurements of reporter gene expression (growth hormone) are collected 2 days after transfection. Growth hormone is measured by a radioimmunoassay as described by the manufacturer (Nichols Institute, San Juan Capistrano, Calif.).

Data set [2] has as its system Murine B16 malignant melanoma cells. The experiment in a line: Antiproliferative assays using malignant melanoma cells (FIG. 2). In kind it is cell-based. Conditions: even at 1 nM concentration. As for the experimental part: Antiproliferative assays using malignant melanoma cells
as §1, with “The average standard deviation of the N/N0 cell number measurements was 0.21 in FIG. 1 and 2.1 in FIG. 2.” left out

As for `C=C1/C(=C\C=C2/CCC[C@]3(C)C([C@H](C)CCC(F)(F)C(O)(CC)CC)=CC[C@@H]23)C[C@@H](O)C[C@@H]1CO` [Structure 4a], the antiproliferative activities entry in the data set with murine keratinocytes is reported as “much less potent”.

On to `C=C1/C(=C\C=C2/CCC[C@]3(C)[C@@H]([C@H](C)CCCC(C)(C)O)CC[C@@H]23)C[C@@H](O)C[C@@H]1O` [calcitriol, 1α,25-dihydroxy vitamin D3, reference compound], for which, in the data set with Male F344 rats, the “calcium excretion into the urine” value is reported as “marked excretion of calcium into the urine”. Moreover, the “suppression of body weight gain” value in data set [1] was “suppression of body weight gain”.

`C=C1/C(=C\C=C2/CCC[C@]3(C)C([C@H](C)CCC(F)(F)C(O)(CC)CC)=CC[C@@H]23)C[C@H](O)C[C@H]1CO` [Structure 4b]: in the data set on murine keratinocytes, the antiproliferative activities result is “significant antiproliferative activities” and the “antiproliferative activity relative to 1,25D3” value is on record as “at least equal to that of 1,25D3”. Besides, in the data set with vitamin D receptor, the EC50 turned out to be 0.05 nM. Besides, in data set [2], the “antiproliferative potency relative to 1,25D3” value is “more potent antiproliferative agents than 1,25D3”. Further, in the data set on Male F344 rats, the “calcium excretion into the urine” value is reported as “no calcium elevation above control”. The “suppression of body weight gain” value in data set [1] is “not observed”.

Take `C=C1/C(=C\C=C2/CCC[C@]3(C)C([C@H](C)CCC(F)(F)C(C)(C)O)=CC[C@@H]23)C[C@H](O)C[C@H]1CO` [Structure 3b]: in the data set on murine keratinocytes, the antiproliferative activities entry is on record as “significant antiproliferative activities” and the “antiproliferative activity relative to 1,25D3” value is “at least equal to that of 1,25D3”. In addition, the EC50 with vitamin D receptor was determined as 0.2 nM. Also, the “antiproliferative potency relative to 1,25D3” value in data set [2] is reported as “more potent antiproliferative agents than 1,25D3”. Also, the “calcium excretion into the urine” value with Male F344 rats was “no calcium elevation above control”. Further, in data set [1], the “suppression of body weight gain” value is on record as “not observed”.

For the compound `C=C1/C(=C\C=C2/CCC[C@]3(C)C([C@H](C)CCC(F)(F)C(C)(C)O)=CC[C@@H]23)C[C@@H](O)C[C@@H]1CO` [Structure 3a], the antiproliferative activities entry in the data set with murine keratinocytes is “much less potent”.
